# How the values were obtained:
# late watergrass = assay: Test Example 1: herbicidal activity, application before weed generation under submerged conditions (Table 16, symbol A); type: in vivo, late watergrass (Echinochloa oryzicola); details: 320 g/ha applied herbicide
# In short: (§1)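 Emulsion formulation, water-diluted to set dose, was put onto the flooded surface (4 cm depth, alluvial soil) the same day weeds were sown and 2.5-leaf rice transplanted. After 3 weeks at 25-30 °C under glass, each species was rated 0 (≤5% kill) to 5 (≥90% kill).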
# Japanese bulrush = assay: Test Example 1: herbicidal activity, application before weed generation under submerged conditions (Table 16, symbol B); type: in vivo, Japanese bulrush (Schoenoplectus juncoides); details: 320 g/ha applied herbicide
# In short: as §1
# oval-leafed pondweed = assay: Test Example 1: herbicidal activity, application before weed generation under submerged conditions (Table 16, symbol C); type: in vivo, oval-leafed pondweed (Monochoria vaginalis); details: 320 g/ha applied herbicide
# In short: as §1
# barnyard grass [1] = assay: Test Example 3: herbicidal effect by foliage application, Wagner pot (Table 18, symbol H); type: in vivo, barnyard grass (Echinochloa crus-galli); details: amount of applied herbicide 320 g/ha
# In short: (§2)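 Plants were sown in alluvial soil held under 0.1–0.5 cm standing water and grown 14 days in a greenhouse at 25–30 °C. An emulsifiable formulation, water-diluted to the set dose, was then sprayed onto the foliage, and effects were scored three weeks later using previously defined criteria.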
# Chinese sprangletop = assay: Test Example 3: herbicidal effect by foliage application, Wagner pot (Table 18, symbol D); type: in vivo, chinese sprangletop (Leptochloa chinensis); details: amount of applied herbicide 320 g/ha
# In short: as §2
# rice flat sedge = assay: Test Example 3: herbicidal effect by foliage application, Wagner pot (Table 18, symbol E); type: in vivo, rice flat sedge (Cyperus iria); details: amount of applied herbicide 320 g/ha
# In short: as §2
# southern crabgrass [2] = assay: Test Example 4: herbicidal effect by soil treatment (Table 19, symbol F); type: in vivo, southern crabgrass (Digitaria ciliaris); details: amount of applied herbicide 320 g/ha
# In short: (§3)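 Soil-surface application: an emulsion agent diluted with water to the predetermined dose is sprayed uniformly over seeds lying under roughly 1.5 cm of sterilized diluvial soil. Boxes stay in a greenhouse at 25° C. to 30° C. Three weeks later, each species is graded on previously defined criteria.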
# green foxtail [3] = assay: Test Example 4: herbicidal effect by soil treatment (Table 19, symbol G); type: in vivo, green foxtail (Setaria viridis); details: amount of applied herbicide 320 g/ha
# In short: as §3
# barnyard grass [4] = assay: Test Example 4: herbicidal effect by soil treatment (Table 19, symbol H); type: in vivo, barnyard grass (Echinochloa crus-galli); details: amount of applied herbicide 320 g/ha
# In short: as §3
# wild oat [5] = assay: Test Example 4: herbicidal effect by soil treatment (Table 19, symbol I); type: in vivo, wild oat (Avena fatua); details: amount of applied herbicide 320 g/ha
# In short: as §3
# blackgrass [6] = assay: Test Example 4: herbicidal effect by soil treatment (Table 19, symbol J); type: in vivo, blackgrass (Alopecurus myosuroides); details: amount of applied herbicide 320 g/ha
# In short: as §3
# Italian ryegrass [7] = assay: Test Example 4: herbicidal effect by soil treatment (Table 19, symbol K); type: in vivo, Italian ryegrass (Lolium multiflorum); details: amount of applied herbicide 320 g/ha
# In short: as §3
# windgrass [8] = assay: Test Example 4: herbicidal effect by soil treatment (Table 19, symbol L); type: in vivo, windgrass (Apera spica-venti); details: amount of applied herbicide 320 g/ha
# In short: as §3
# velvetleaf [9] = assay: Test Example 4: herbicidal effect by soil treatment (Table 19, symbol M); type: in vivo, velvetleaf (Abutilon theophrasti); details: amount of applied herbicide 320 g/ha
# In short: as §3
# redroot pigweed [10] = assay: Test Example 4: herbicidal effect by soil treatment (Table 19, symbol N); type: in vivo, redroot pigweed (Amaranthus retroflexus); details: amount of applied herbicide 320 g/ha
# In short: as §3
# lambsquarters [11] = assay: Test Example 4: herbicidal effect by soil treatment (Table 19, symbol O); type: in vivo, lambsquarters (Chenopodium album); details: amount of applied herbicide 320 g/ha
# In short: as §3
# chickweed [12] = assay: Test Example 4: herbicidal effect by soil treatment (Table 19, symbol P); type: in vivo, common chickweed (Stellaria media); details: amount of applied herbicide 320 g/ha
# In short: as §3
# false cleavers [13] = assay: Test Example 4: herbicidal effect by soil treatment (Table 19, symbol Q); type: in vivo, false cleavers (Galium spurium); details: amount of applied herbicide 320 g/ha
# In short: as §3
# persian speedwell [14] = assay: Test Example 4: herbicidal effect by soil treatment (Table 19, symbol R); type: in vivo, Persian speedwell (Veronica persica); details: amount of applied herbicide 320 g/ha
# In short: as §3
# southern crabgrass [15] = assay: Test Example 5: herbicidal effect by foliage application, plastic box (Table 20, symbol F); type: in vivo, southern crabgrass (Digitaria ciliaris); details: foliage application, 320 g/ha, evaluated three weeks after application
# In short: (§4)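 Sow seeds spot-wise in sterilized diluvial soil; cover with ~1.5 cm soil. Grow 14 days in greenhouse, 25° C. to 30° C. Spray foliage with emulsion diluted to predetermined amount. Rate effect after 3 weeks.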
# green foxtail [16] = assay: Test Example 5: herbicidal effect by foliage application, plastic box (Table 20, symbol G); type: in vivo, green foxtail (Setaria viridis); details: foliage application, 320 g/ha, evaluated three weeks after application
# In short: as §4
# barnyard grass [17] = assay: Test Example 5: herbicidal effect by foliage application, plastic box (Table 20, symbol H); type: in vivo, barnyard grass (Echinochloa crus-galli); details: foliage application, 320 g/ha, evaluated three weeks after application
# In short: as §4
# wild oat [18] = assay: Test Example 5: herbicidal effect by foliage application, plastic box (Table 20, symbol I); type: in vivo, wild oat (Avena fatua); details: foliage application, 320 g/ha, evaluated three weeks after application
# In short: as §4
# blackgrass [19] = assay: Test Example 5: herbicidal effect by foliage application, plastic box (Table 20, symbol J); type: in vivo, blackgrass (Alopecurus myosuroides); details: foliage application, 320 g/ha, evaluated three weeks after application
# In short: as §4
# Italian ryegrass [20] = assay: Test Example 5: herbicidal effect by foliage application, plastic box (Table 20, symbol K); type: in vivo, Italian ryegrass (Lolium multiflorum); details: foliage application, 320 g/ha, evaluated three weeks after application
# In short: as §4
# windgrass [21] = assay: Test Example 5: herbicidal effect by foliage application, plastic box (Table 20, symbol L); type: in vivo, windgrass (Apera spica-venti); details: foliage application, 320 g/ha, evaluated three weeks after application
# In short: as §4
# velvetleaf [22] = assay: Test Example 5: herbicidal effect by foliage application, plastic box (Table 20, symbol M); type: in vivo, velvetleaf (Abutilon theophrasti); details: foliage application, 320 g/ha, evaluated three weeks after application
# In short: as §4
# redroot pigweed [23] = assay: Test Example 5: herbicidal effect by foliage application, plastic box (Table 20, symbol N); type: in vivo, redroot pigweed (Amaranthus retroflexus); details: foliage application, 320 g/ha, evaluated three weeks after application
# In short: as §4
# lambsquarters [24] = assay: Test Example 5: herbicidal effect by foliage application, plastic box (Table 20, symbol O); type: in vivo, lambsquarters (Chenopodium album); details: foliage application, 320 g/ha, evaluated three weeks after application
# In short: as §4
# chickweed [25] = assay: Test Example 5: herbicidal effect by foliage application, plastic box (Table 20, symbol P); type: in vivo, common chickweed (Stellaria media); details: foliage application, 320 g/ha, evaluated three weeks after application
# In short: as §4
# false cleavers [26] = assay: Test Example 5: herbicidal effect by foliage application, plastic box (Table 20, symbol Q); type: in vivo, false cleavers (Galium spurium); details: foliage application, 320 g/ha, evaluated three weeks after application
# In short: as §4
# persian speedwell [27] = assay: Test Example 5: herbicidal effect by foliage application, plastic box (Table 20, symbol R); type: in vivo, Persian speedwell (Veronica persica); details: foliage application, 320 g/ha, evaluated three weeks after application
# In short: as §4
smiles,measurement,setting,value
COc1ccc2sc(-c3ccccc3OC)c(-c3c(O)c(C)nn(C)c3=O)c2c1 [2-165],Herbicidal effect on A: late watergrass (grade 0-5),late watergrass,3 (Herbicidal rate of 40% or more and less than 70%)
same,Herbicidal effect on B: Japanese bulrush (grade 0-5),Japanese bulrush,0 (Herbicidal rate of 5% or less (almost no effect))
same,Herbicidal effect on C: oval-leafed pondweed (grade 0-5),oval-leafed pondweed,1 (Herbicidal rate of 5% or more and less than 20%)
same,herbicidal effect on H: barnyard grass,barnyard grass [1],5 (Herbicidal rate of 90% or more (almost completely withered))
same,herbicidal effect on D: Chinese sprangletop,Chinese sprangletop,3 (Herbicidal rate of 40% or more and less than 70%)
same,herbicidal effect on E: rice flat sedge,rice flat sedge,5 (Herbicidal rate of 90% or more (almost completely withered))
same,"F: southern crabgrass, herbicidal effect rating",southern crabgrass [2],3 (Herbicidal rate of 40% or more and less than 70%)
same,"G: green foxtail, herbicidal effect rating",green foxtail [3],4 (Herbicidal rate of 70% or more and less than 90%)
same,"H: barnyard grass, herbicidal effect rating",barnyard grass [4],3 (Herbicidal rate of 40% or more and less than 70%)
same,"I: wild oat, herbicidal effect rating",wild oat [5],2 (Herbicidal rate of 20% or more and less than 40%)
same,"J: blackgrass, herbicidal effect rating",blackgrass [6],4 (Herbicidal rate of 70% or more and less than 90%)
same,"K: Italian ryegrass, herbicidal effect rating",Italian ryegrass [7],0 (Herbicidal rate of 5% or less (almost no effect))
same,"L: windgrass, herbicidal effect rating",windgrass [8],4 (Herbicidal rate of 70% or more and less than 90%)
same,"M: velvetleaf, herbicidal effect rating",velvetleaf [9],2 (Herbicidal rate of 20% or more and less than 40%)
same,"N: redroot pigweed, herbicidal effect rating",redroot pigweed [10],4 (Herbicidal rate of 70% or more and less than 90%)
same,"O: lambsquarters, herbicidal effect rating",lambsquarters [11],4 (Herbicidal rate of 70% or more and less than 90%)
same,"P: chickweed, herbicidal effect rating",chickweed [12],4 (Herbicidal rate of 70% or more and less than 90%)
same,"Q: false cleavers, herbicidal effect rating",false cleavers [13],3 (Herbicidal rate of 40% or more and less than 70%)
same,"R: persian speedwell, herbicidal effect rating",persian speedwell [14],5 (Herbicidal rate of 90% or more (almost completely withered))
same,herbicidal effect on F: southern crabgrass (criteria 0-5),southern crabgrass [15],5 (Herbicidal rate of 90% or more (almost completely withered))
same,herbicidal effect on G: green foxtail (criteria 0-5),green foxtail [16],5 (Herbicidal rate of 90% or more (almost completely withered))
same,herbicidal effect on H: barnyard grass (criteria 0-5),barnyard grass [17],5 (Herbicidal rate of 90% or more (almost completely withered))
same,herbicidal effect on I: wild oat (criteria 0-5),wild oat [18],5 (Herbicidal rate of 90% or more (almost completely withered))
same,herbicidal effect on J: blackgrass (criteria 0-5),blackgrass [19],5 (Herbicidal rate of 90% or more (almost completely withered))
same,herbicidal effect on K: Italian ryegrass (criteria 0-5),Italian ryegrass [20],4 (Herbicidal rate of 70% or more and less than 90%)
same,herbicidal effect on L: windgrass (criteria 0-5),windgrass [21],5 (Herbicidal rate of 90% or more (almost completely withered))
same,herbicidal effect on M: velvetleaf (criteria 0-5),velvetleaf [22],5 (Herbicidal rate of 90% or more (almost completely withered))
same,herbicidal effect on N: redroot pigweed (criteria 0-5),redroot pigweed [23],5 (Herbicidal rate of 90% or more (almost completely withered))
same,herbicidal effect on O: lambsquarters (criteria 0-5),lambsquarters [24],5 (Herbicidal rate of 90% or more (almost completely withered))
same,herbicidal effect on P: chickweed (criteria 0-5),chickweed [25],5 (Herbicidal rate of 90% or more (almost completely withered))
same,herbicidal effect on Q: false cleavers (criteria 0-5),false cleavers [26],5 (Herbicidal rate of 90% or more (almost completely withered))
same,herbicidal effect on R: persian speedwell (criteria 0-5),persian speedwell [27],4 (Herbicidal rate of 70% or more and less than 90%)
